# Results filed as inconclusive are left out. Activity calls are given as the source filed them.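 Rule for the calls: active = EC50 no more than tenfold above the top concentration tested, with valid fit and all samples agreeing; inconclusive = flat fit at 30 to 70% inhibition, poor fit, or split samples; inactive = EC50 beyond tenfold the top concentration tested.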
# Tested on: BJeLR fibroblast viability, Alamar Blue fluorescence, 48 h
# Assay: BJeLR fibroblast growth inhibition, viability readout – cell-based, alamar blue fluorescence, 48 h, cherrypicked samples, dose response (AID 2610);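 note: BJ fibroblasts with hTERT plus SV40 large and small T and HRAS V12; EC50 for loss of viable cells so potency reflects cytotoxic compounds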
row,SMILES,EC50
1,Nc1nc(CCl)nc(Nc2cccc3ccccc23)n1,493 nM
2,CCN1/C(=C\C=C\C2=[N+](CC)c3ccccc3C2(C)C)C(C)(C)c2ccccc21,239 nM
3,O=C(N/N=C/c1ccccc1Cl)c1[nH]c2ccc(Br)cc2c1-c1ccccc1,149 nM
4,COc1cccc(N2C(N)=NC(N)=NC2(C)C)c1,> 13300 nM (inactive)
5,CCn1c(C)nc2cc(-c3nc4n(n3)Cc3ccccc3-4)ccc21,> 13300 nM (inactive)
6,O=C(NC(Nc1nc2ccc([N+](=O)[O-])cc2s1)(C(F)(F)F)C(F)(F)F)c1ccccc1Cl,427 nM
7,CCc1c(C)c(C#N)c2nc3ccccc3n2c1Cl,553 nM
8,ClC1=C(Cl)C(Cl)=C(Cl)C1=C/C=C/c1ccccc1,1040 nM
9,Cc1cccc(N(C)S(=O)(=O)c2ccc(-c3cnc(C4CC4)o3)cc2)c1,< 104 nM
10,Cc1cccc(Nc2nc(N)nc(CCl)n2)c1,2210 nM
11,NS(=O)(=O)c1ccc(NC(=O)c2cc(-c3cccs3)nc3ccccc23)cc1,> 13300 nM (inactive)
12,O=C(NC(Nc1nc2ccc([N+](=O)[O-])cc2s1)(C(F)(F)F)C(F)(F)F)c1ccccc1,239 nM
13,C[C@]12CCC3C(CCC4=CC(O)CC[C@@]43/C=N/O)C1(O)CCC2C1=CC(=O)OC1 (stereo partly specified),294 nM
14,COc1cc(NC(=O)c2cccs2)c(OC)cc1NC(=O)CCC(=O)Nc1ccc2ncccc2c1,> 13300 nM (inactive)
15,CC[C@@]1(O)C(=O)OCc2c1cc1n(c2=O)Cc2cc3c(NC(=O)CN)cccc3nc2-1,292 nM
16,C/C(=N\Nc1ccc2nncn2n1)c1ccccn1,1140 nM
17,Cc1ccc(C)c(NS(=O)(=O)c2ccc(-c3cnc(C4CC4)o3)cc2)c1,< 104 nM
18,COc1ccccc1/C=C1\SC(=S)N(CCC(=O)NCCCn2ccnc2)C1=O,> 13300 nM (inactive)
19,CC(=O)Nc1ccc(NC(=O)CN(c2cccc([N+](=O)[O-])c2)S(C)(=O)=O)cc1,1410 nM
20,CCN(CC)C(=O)c1ccc(NC(=O)Nc2ccccc2F)cc1,> 13300 nM (inactive)
21,CC(C)c1cc(C(=O)N/N=C/C(Br)=C/c2ccccc2)n[nH]1,958 nM
22,COc1cccc(C(=O)N/N=C(/c2ccccc2)c2ccccn2)c1,821 nM

row,SMILES,EC50
1,N#CCc1ccc(NC(=O)/C=C/c2ccc([N+](=O)[O-])o2)cc1,1100 nM
2,C/C(=N\NC(=O)c1ccc(F)cc1)c1ccccn1,491 nM
3,COc1ccc(S(=O)(=O)N2CCOCC2)cc1NC(=O)CCNC(=O)c1ccc(Br)cc1,440 nM
4,Nc1ncnc2c1ccn2[C@@H]1O[C@H](CO)[C@@H](O)[C@H]1O,< 104 nM
5,CCOc1cc(/C=C2\COc3ccccc3C2=O)cc(Br)c1OCC(=O)N(C)C,3080 nM
6,Cc1cc(-n2c(SCC(=O)NCCC3=CCCCC3)nc3n[nH]c(C)c3c2=N)ccc1Cl,> 13300 nM (inactive)
7,CCOc1ccc(N=Cc2c(C)[nH]n(-c3nc4ccccc4[nH]3)c2=O)cc1,> 13300 nM (inactive)
8,O=C(N/N=C/c1ccc([N+](=O)[O-])o1)c1cc2ccccc2o1,7500 nM
9,COc1cccc2c1C(=O)c1c(O)c3c(c(O)c1C2=O)C[C@@](O)(C(=O)CO)C[C@@H]3O[C@H]1C[C@H](N)[C@H](O)[C@H](C)O1,< 104 nM
10,O=c1cnnc(N/N=C/c2ccccn2)[nH]1,1030 nM
11,CCOc1ccc(OCc2cccc(C(=O)O)c2)cc1,> 13300 nM (inactive)
12,Cc1ccc(C(C)C)c(OCc2ccc(C(=O)N/N=C/c3cccc(O)c3O)cc2)c1,496 nM
13,Oc1ccccc1N=Nc1nc(-c2ccccc2)c(-c2ccccc2)[nH]1,176 nM
14,Cc1ccc(/C=N/NC(=O)c2cc(-c3ccncc3)nc3ccccc23)o1,685 nM
15,COc1cc(C2c3cc4c(cc3C(OC3OC5COC(c6cccs6)OC5C(O)C3O)C3COC(=O)C23)OCO4)cc(OC)c1O (stereo unspecified),129 nM
16,COc1ccc(-c2cc3nc(C)cc(N)n3n2)cc1,> 13300 nM (inactive)
17,Cc1cccc(NS(=O)(=O)c2ccc(-c3cnc(C4CC4)o3)cc2)c1C,< 104 nM
18,COC(=O)c1[nH]c2c(c1C)C(=O)CC(c1cccs1)C2 (stereo unspecified),152 nM
19,COCc1c(C(C)C)nc(C(C)C)c(/C=C/[C@@H](O)C[C@@H](O)CC(=O)O)c1-c1ccc(F)cc1,< 104 nM
20,O=C1C(=O)c2ccc(-c3ccccc3)cc2-c2ccccc21,926 nM
21,CCCCCCCCCCCCn1ccc(=N)cc1,522 nM
22,Cc1nc(N)nc(N)c1CCCc1ccc(Cl)c(Cl)c1,> 13300 nM (inactive)

row,SMILES,EC50
1,COc1ccc(COC(=O)c2cc([N+](=O)[O-])ccc2N2CCOCC2)cc1F,< 104 nM
2,Cc1onc(C(=O)N2CCN(C(c3ccccc3)c3ccccc3)CC2)c1[N+](=O)[O-],762 nM
3,CCN(CC)CCN1C(=O)/C(=C\c2ccc(Cl)c([N+](=O)[O-])c2)SC1=Nc1ccc(OC)cc1,563 nM
4,C(=N\Nc1nncc2ccccc12)/c1ccccn1,3340 nM
5,O=C(NCCOc1cccnc1)c1ccc(OC2CCN(Cc3ccccn3)CC2)cc1,< 91.9 nM
6,CSc1cc(-c2ccccc2)n(Cc2ccccc2Cl)c(=O)c1C#N,709 nM
7,Oc1c(N=Nc2ccccn2)ccc2ccccc12,241 nM
8,Cc1cc2nc(/C=C/c3cccnc3)[nH]c2cc1C,< 104 nM
9,CNC(=S)N/N=C/c1ccc(-c2ccc(C(=O)O)cc2)o1,> 13300 nM (inactive)
10,CCCCCOc1ccc(Br)cc1/C(C)=N/NC1=NCCN1,697 nM
11,O=C(Nc1ccc([N+](=O)[O-])cc1)Nc1ccon1,380 nM
12,COc1ccc(-c2nnc(NC(=O)c3ccc(S(=O)(=O)N4CCc5ccccc5C4)cc3)o2)cc1,2600 nM
13,CC(C)C(=O)Nc1ccc(C(=O)NCc2cccnc2)cc1,742 nM
14,CCOC(=O)/C(=C\c1cccnc1)C(=O)c1cc(C(C)=O)c(Nc2ccccc2)s1,575 nM
15,O=S(=O)(c1ccc(Cl)cc1)c1snnc1-c1ccccc1,594 nM
16,CCCCOc1ccc(Br)cc1/C(C)=N/NC1=NCCN1,585 nM
17,Cc1cc(C)c2nc(C)cc(N/N=C/c3ccc(O)cc3)c2c1,575 nM
18,CC(C)(C)c1ccc(-n2nc(C#N)c(Cl)cc2=O)cc1,963 nM
19,CCn1cc(C(=O)NCc2ccco2)c(=O)c2cc(S(=O)(=O)N3CC(C)CC(C)C3)ccc21 (stereo unspecified),> 13300 nM (inactive)
20,O=C(CSc1ccccn1)NCc1ccc2c(c1)OCO2,> 13300 nM (inactive)
21,CCN(CC)Cc1c(O)ccc2c1O/C(=C\C=C\c1ccccc1)C2=O,> 13300 nM (inactive)
22,COc1ccccc1C(=O)Nc1nc2ccccc2[nH]1,> 13300 nM (inactive)

row,SMILES,EC50
1,CCOC(=O)c1c(CSC(=N)N)n(-c2ccc(C)cc2)c2cc(Br)c(OC(C)=O)cc12,> 13300 nM (inactive)
2,Cn1c(/C=C/c2ccc([N+](=O)[O-])o2)nc2ccccc2c1=O,544 nM
3,CCNC(=S)NNC(=O)c1cc(-c2ccc(OCC)cc2)nc2ccccc12,> 13300 nM (inactive)
4,CC1C/C(=C/c2ccncc2)C(=O)/C(=C/c2ccncc2)C1 (stereo unspecified),400 nM
5,Cn1cnc([N+](=O)[O-])c1Sc1ncnc2nc[nH]c12,> 13300 nM (inactive)
6,O=Cc1ccc(O)c2ncccc12,463 nM
7,COc1ccc(CCNc2nnc(Sc3nnnn3-c3ccccc3)s2)cc1OC,344 nM
8,CCOc1ccc2c(c1)C(C)=CC(C)(C)N2S(=O)(=O)c1ccc(NC(C)=O)cc1,< 104 nM
9,COc1ccc2[nH]c(=O)c(CN(Cc3cccs3)S(=O)(=O)c3cccc4nsnc34)cc2c1,1460 nM
10,Cc1nc(N)nc(N)c1/C=C/C(C)(C)c1ccc(Cl)cc1,> 13300 nM (inactive)
11,COc1ccc(N(C(=O)CCl)C(C(=O)NCCc2ccccc2)c2cccs2)cc1 (stereo unspecified),428 nM
12,COc1ccc(C2=CC(=O)C=CC2=O)cc1,> 13300 nM (inactive)
13,Cc1ccc(N2C(=O)c3cccc4c([N+](=O)[O-])ccc(c34)C2=O)c2cccnc12,523 nM
14,CC1CCCN(c2ccc([N+](=O)[O-])cc2C(=O)c2ccccc2)C1 (stereo unspecified),< 104 nM
15,COC(=O)C1=C(C)N(Cc2ccccc2)C(=NCc2cccc(C(F)(F)F)c2)N[C@H]1c1cccc(F)c1,> 13300 nM (inactive)
16,Nc1nc(N)c2c(ccc3nccc32)[nH]1,> 13300 nM (inactive)
17,Cc1cc(C)cc(NS(=O)(=O)c2ccc(-c3cnc(C4CC4)o3)cc2)c1,< 104 nM
18,O=C(N/N=C/c1cc2c3c(c1O)CCCN3CCC2)c1ccccc1O,755 nM
19,Cc1cc(N)c2cc(NC(=O)/C=C/c3ccccc3Cl)ccc2n1,1240 nM
20,CCc1nc(N)nc(N)c1-c1ccc(Cl)cc1,> 13300 nM (inactive)
21,c1ccc(-c2ccc(-c3nc(-c4ccccn4)no3)cc2)cc1,> 13300 nM (inactive)
22,COc1ccc(N/C=C/C(=O)c2cc(OC)c(OC)c(OC)c2)cc1,206 nM

row,SMILES,EC50
1,O=C(Oc1ccc(-c2nc(-c3ccccn3)no2)cc1)c1ccccc1,> 13300 nM (inactive)
2,C[C@@H]1C[C@H]2OC(=O)C3(CO3)[C@H]2[C@H](O)[C@]2(C)C(=O)C3OC3[C@@H]12 (stereo partly specified),2830 nM
3,C[C@@H]1C=CC(=O)O[C@@H]1c1ccc(C(F)(F)F)cc1,1970 nM
4,CCOC(=O)c1c(C)[nH]c2c1-c1ccccc1C(=O)C2=O,492 nM
5,COc1cc([C@@H]2c3cc4c(cc3[C@@H](NC3CCN(Cc5ccccc5)CC3)[C@H]3COC(=O)[C@H]23)OCO4)cc(OC)c1O,133 nM
6,CCN(CC)c1ccc2c(cc1=O)[C@@H](NC)CCc1cc(OC)c(OC)c(OC)c1-2,380 nM
7,COc1ccc(N2C(=O)/C(=C/c3ccc(C)o3)C(=O)NC2=S)cc1,> 13300 nM (inactive)
8,CCN1/C(=C/c2ccc3ccccc3[n+]2CC)C=Cc2ccccc21,726 nM
9,CSc1ccc(COC(=O)c2cc([N+](=O)[O-])ccc2N2CCOCC2)cc1,< 104 nM
10,COc1cccc(NC(=O)n2ncc3c(C)cccc32)c1,> 13300 nM (inactive)
11,O=C(/C=C/c1ccc([N+](=O)[O-])o1)NNC(=O)c1ccc(F)cc1,2660 nM
12,Cc1ccc(C(=O)Sc2cccccc2=O)cc1,< 62.4 nM
13,Cc1nn(-c2ccccc2)c(Cl)c1CN(C(=O)CCl)c1ccc(Cl)cc1,521 nM
14,CN(C)CCNC(=O)c1cc2c(s1)-c1ccc(Cl)cc1SC2,1120 nM
15,CCN(CC)c1ccc(/C=N/NC(=O)c2nnn(-c3nonc3N)c2C(C)C)c(O)c1,565 nM
16,Nc1nc(F)nc2c1ncn2[C@@H]1O[C@H](CO)[C@@H](O)[C@H]1O,151 nM
17,O=C(NCCCn1ccnc1)c1ccc(N2CCCCCC2)c([N+](=O)[O-])c1,6680 nM
18,COc1ccc(C2C(O)C(c3c[nH]c4ccccc34)=NN2C(=O)CCl)cc1 (stereo unspecified),307 nM
